In this assay the test system is primary spinal cord lower motor neurons (MNs) from SOD1 G93A Tg rats. The assay can be described thus: Cellular model of Amyotrophic Lateral Sclerosis (glutamate injury). The class given is cell-based, rat. On the procedure: Compounds 157 (particularly) preferred), 185 and 196 were selected example compounds if this invention to evaluate in this model. This model (run by Neuro-Sys SAS, France) evaluates the protective effects of test compounds on primary spinal cord lower motor neurons (MNs) from SOD1 G93A Tg rats, after a glutamate injury. The MNs are pre-treated with the test compounds for 1 hour prior to exposure to glutamate, and readouts are measured 24 hours later. This model functions as an in vitro model of Amyotrophic Lateral Sclerosis. […] Any substances which can attenuate one or more of these effects can be considered to have protective effects in the model and may be useful as a new therapeutic agent for the treatment or prevention of ALS.
Genotyping of SOD1 Tg embryos: Pregnant female rat SODIG93A (Sprague Dawley, Taconic), of 14 days of gestation were obtained fromTaconic Bioscience. On the day of the dissection (from pregnant females at 14 days of gestation), a piece of each embryo brain (˜3 mm) was placed in a 2 mL tube free DNase with a new scalpel. The DNA was extracted with the SYBR Green Extract-N-Amp tissue PCR kit (Sigma Aldrich). Briefly, 120 μL of extraction solution was put on each piece of embryo heads. Then, they were incubated for 10 min at room temperature. At the end of this incubation period, the heads were incubated for 5 min at 95° C. Immediately after this last incubation, 100 μL of neutralizing solution was added; each DNA extract was diluted at 1/40 and stored at +4° C. until use. SOD1G93A gene was determined using genomic fragment with human SOD1 primers (5′-[…]-3′ (SEQ ID NO: 1); 5′-[…]-3′ (SEQ ID NO: 2)). The SOD1 primers were diluted at 3 μM in sterile ultrapure water. Briefly, a mix for PCR was prepared with ultrapure water (4 μL per sample), primer at 3 μM (2 μL per sample) and Master Mix (10 μL per sample). In a PCR 96 wells plate, 16 μL of PCR mix was added in each well. 4 μL of each diluted DNA was added according to a plan deposit. The RT-PCR was ran using the CFX96 Biorad RT-PCR system, using the following program: Initial denaturation (95° C., 20 sec)/45 cycles (95° C., 10 sec; 65° C., 10 sec; 72° C., 30 sec)/Melt curve (95° C., 15 sec; 64° C., 1 min; 90° C., 30 sec; 60° C. 15 sec). The amplification plots and melt curves were analyzed with the Biorad software. The results for each sample were compared to negative control (ultrapure water) and to the positive control (DNA from Tg embryos).
Rat spinal cord motor neurons (MNs) were be cultured as described by Wang et al. 2013 and Boussicault et al., 2020. Briefly, pregnant female rats of 14 days gestation (Sprague Dawley; Taconic) were killed using a deep anesthesia with CO2 chamber and a cervical dislocation. Then, fetuses were removed from the uterus and immediately placed in ice-cold L15 Leibovitz medium with a 2% penicillin (10,000 U/ml) and streptomycin (10 mg/ml) solution (PS) and 1% bovine serum albumin (BSA).
Spinal cords were treated for 20 min at 37° C. with a trypsin-EDTA solution at a final concentration of 0.05% trypsin and 0.02% EDTA. The dissociation was stopped by addition of Dulbecco's modified Eagle's medium (DMEM) with 4.5 g/liter of glucose, containing DNAse I grade II (final concentration 0.5 mg/mL) and 10% fetal calf serum (FCS). Cells were mechanically dissociated by three forced passages through the tip of a 10-ml pipette. Cells were then centrifuged at 515×g for 10 min at 4° C. The supernatant was discarded, and the pellet was resuspended in a defined culture medium consisting of Neurobasal medium with a 2% solution of B27 supplement, 2 mmol/liter of L-glutamine, 2% of PS solution, and 10 ng/ml of brain-derived neurotrophic factor (BDNF). Viable cells were counted in a Neubauer cytometer, using the trypan blue exclusion test. The cells were seeded at a density of 20,000 per well in 96-well plates precoated with poly-L-lysine and will be cultured at 37° C. in an air (95%)—CO2 (5%) incubator. […]

Consider `CCN1CCC(N(C)C(=O)c2csc(-c3cnn(-c4ccccc4)c3)n2)CC1` [Compound 196, N-(1-ethylpiperidin-4-yl)-N-methyl-2-(1-phenyl-1H-pyrazol-4-yl)-1,3-thiazole-4-carboxamide], for which the “effects in the in vitro model of ALS” value was “positive effects”. In addition, where the note is “0.5 μM, 1 μM and 10 μM”, the “abnormal TDP43 accumulation in the cytoplasm resulting from glutamate injury” value was “fully abolished”. Also, the “increase in neurite network length” value (10 μM, compared to glutamate injury alone) came to 16%. For the same compound, the “increase in number of motor neurons” value (1 and 10 μM, compared to glutamate injury alone) is listed as greater than 10%.

Source of the values: patent US20250034127A1, “AUTOPHAGY INDUCING COMPOUNDS AND USES THEREOF, IN PARTICULAR FOR DISEASES OF THE CNS” (Samsara Therapeutics Inc., priority 2021, published 2025).
